Assay results from publication PMC10405867 (Journal of Enzyme Inhibition and Medicinal Chemistry, 2023).

Molecular target: SARS-CoV-2 Mpro (Severe acute respiratory syndrome coronavirus 2, UniProt P0DTD1)
Assay: biochemical
Type: biochemical

| SMILES | IC50 [µM] | fold decreased 3CL-Pro inhibitory activity than unsubstituted counterpart 6a |
| --- | --- | --- |
| NS(=O)(=O)c1ccc(NC(=O)Cn2cc(CN3C(=O)C(=O)c4ccccc43)nn2)cc1 [6a, 2–(4-((2,3-Dioxoindolin-1-yl)methyl)-1H-1,2,3-triazol-1-yl)-N-(4-sulfamoylphenyl)acetamide] | 0.562 ± 0.005 |  |
| COc1ccc2c(c1)C(=O)C(=O)N2Cc1cn(CC(=O)Nc2ccc(C(C)=O)cc2)nn1 [10b, N-(4-Acetylphenyl)-2–(4-((5-methoxy-2,3-dioxoindolin-1-yl)methyl)-1H-1,2,3-triazol-1-yl)acetamide] | 17.1 ± 0.815 |  |
| CC(=O)c1ccc(NC(=O)Cn2cc(CN3C(=O)C(=O)c4ccccc43)nn2)cc1 [10a, N-(4-Acetylphenyl)-2–(4-((2,3-dioxoindolin-1-yl)methyl)-1H-1,2,3-triazol-1-yl)acetamide] | 12.3 ± 0.73 |  |
| NS(=O)(=O)c1ccc(NC(=O)Cn2cc(CN3C(=O)C(=O)c4cc(OC(F)(F)F)ccc43)nn2)cc1 [6d, 2–(4-((2,3-Dioxo-5-(trifluoromethoxy)indolin-1-yl)methyl)-1H-1,2,3-triazol-1-yl)-N-(4-sulfamoylphenyl)acetamide] | 1.05 ± 0.053 | about 2 fold |
